Laboratory results taken from ChEMBL document CHEMBL1201862, “PubChem BioAssay data set” (2004).
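Protocol summary: plate cells (96-well), add compound at 5 concentrations, incubate 48 h, interpolate endpoints linearly. GI50: concentration for 50% inhibition of growth.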 Activity calls are given as the source filed them. Rule as the data show it: active = GI50 up to about 1.1 µM and inactive = higher.

Tests used:
Test in all cases: NCI-60 cell line screen, 48 h
[1] = test system: SF-295
[2] = test system: HOP-62
[3] = test system: A549
[4] = test system: OVCAR-5
[5] = test system: UO-31
[6] = test system: HT-29
[7] = test system: MCF7
[8] = test system: EKVX
[9] = test system: RXF 393
[10] = test system: MOLT-4
[11] = test system: PC-3
[12] = test system: SK-MEL-28
[13] = test system: SNB-75
[14] = test system: TK-10
[15] = test system: RPMI-8226
[16] = test system: SK-MEL-5
[17] = test system: OVCAR-3
[18] = test system: NCI-H522
[19] = test system: KM12
[20] = test system: HL-60

Measured: GI50

C=CCCC(=O)C(=[N+]=[N-])C(=O)CCC(=O)c1ccccc1
inactive: [1] > 10 µM | [2] > 10 µM | [3] > 10 µM | [4] > 10 µM | [5] > 10 µM | [6] > 10 µM | [7] > 10 µM | [8] > 10 µM | [9] > 10 µM | [10] > 10 µM | [11] > 10 µM | [12] > 10 µM | [13] 8.38 µM | [14] > 10 µM | [15] > 10 µM | [16] > 10 µM | [17] > 10 µM

CCCn1c(=O)c(N2CCN(c3ccccc3)CC2)nc2sc3ccccc3c21
inactive: [1] > 100 µM | [2] > 100 µM | [3] > 100 µM | [4] > 100 µM | [5] > 100 µM | [6] > 100 µM | [7] > 100 µM | [8] > 100 µM | [10] > 100 µM | [11] > 100 µM | [12] > 100 µM | [13] > 100 µM | [18] > 100 µM | [14] > 100 µM | [16] > 100 µM | [19] > 100 µM | [20] 49.7 µM | [17] > 100 µM

CC1C2=C(CCCC2=O)N(c2ccc(Cl)cc2)C2=C1C(=O)CCC2
inactive: [3] 88.5 µM | [4] > 100 µM | [5] 46.2 µM | [6] 45.6 µM | [7] 57.7 µM | [8] 57.7 µM | [9] 21.6 µM | [10] 20.3 µM | [11] 60 µM | [12] > 100 µM | [13] 16.3 µM | [14] 86.7 µM | [15] 67 µM | [16] 40.6 µM | [19] > 100 µM | [20] 31.3 µM | [17] 69.8 µM

Nc1nc2c(=O)c3ccccc3sc2s1
inactive: [1] 44.1 µM | [2] 29.2 µM | [3] 33.7 µM | [4] 80.7 µM | [5] 35.6 µM | [6] 54.8 µM | [7] 5.96 µM | [8] 23 µM | [9] 39.8 µM | [10] 47.4 µM | [11] 60 µM | [12] > 100 µM | [13] 40.5 µM | [14] 41.5 µM | [15] 33.6 µM | [16] 35.5 µM | [19] > 100 µM | [20] 28.9 µM | [17] 56.2 µM

Cn1cc[n+](-c2cc(=O)n(C)c(=O)[n-]2)c1
inactive: [2] > 100 µM | [3] > 100 µM | [4] > 100 µM | [5] 44.3 µM | [6] > 100 µM | [7] 93.5 µM | [8] 49.9 µM | [9] > 100 µM | [10] 77.8 µM | [11] > 100 µM | [12] > 100 µM | [14] 31.8 µM | [15] 96.8 µM | [16] 97.7 µM | [19] > 100 µM | [20] > 100 µM | [17] 80 µM

O=C1C2=Cc3ccccc3OC2(O)Oc2cc(O)cc(O)c21 (stereo not given)
inactive: [1] > 100 µM | [2] > 100 µM | [3] > 100 µM | [4] > 100 µM | [6] > 100 µM | [7] > 100 µM | [8] > 100 µM | [9] > 100 µM | [10] > 100 µM | [11] > 100 µM | [12] > 100 µM | [13] > 100 µM | [14] > 100 µM | [15] > 100 µM | [16] > 100 µM | [19] > 100 µM | [17] > 10 µM

COc1ccc(/N=N/c2c(C)c(C#N)c(=S)n(C3OC(CO)C(O)C(O)C3O)c2C)cc1 (stereo not given)
inactive: [1] 52.1 µM | [2] 42.3 µM | [3] 52.1 µM | [4] > 100 µM | [5] 41.9 µM | [6] 37.9 µM | [7] 33 µM | [9] > 100 µM | [10] 21.8 µM | [11] 31.5 µM | [12] 30.8 µM | [13] 83.6 µM | [14] 82 µM | [15] 39.2 µM | [16] 14.5 µM | [19] 73.1 µM | [20] 38.3 µM | [17] 34.4 µM

COc1c2cc([N+](=O)[O-])cc1CN(C(=O)C(F)(F)F)CCOCCN(C(=O)C(F)(F)F)C2
inactive: [1] > 100 µM | [2] > 100 µM | [3] > 100 µM | [4] > 100 µM | [5] > 100 µM | [6] > 100 µM | [7] > 100 µM | [8] > 100 µM | [10] > 100 µM | [11] > 100 µM | [12] > 100 µM | [13] 69.7 µM | [18] > 100 µM | [14] > 100 µM | [16] > 100 µM | [19] > 100 µM | [20] > 100 µM | [17] > 100 µM

O=C(O)C1(C(O)c2ccccc2)SCCCS1 (stereo not given)
inactive: [1] > 10 µM | [2] > 10 µM | [3] > 10 µM | [4] > 10 µM | [5] > 10 µM | [6] > 10 µM | [7] > 10 µM | [8] > 10 µM | [9] > 10 µM | [10] > 10 µM | [11] > 10 µM | [12] > 10 µM | [13] > 10 µM | [14] > 10 µM | [16] > 10 µM | [19] > 10 µM | [20] > 10 µM | [17] > 10 µM

C#C[C@]1(O)CC[C@H]2[C@@H]3CCC4=C/C(=N/NC(=O)c5cccc6c(=O)c7ccccc7[nH]c56)CCC4[C@H]3CC[C@@]21C (stereo not given in full)
inactive: [1] 43.4 µM | [2] > 100 µM | [3] 60.3 µM | [4] > 100 µM | [5] 20.5 µM | [6] 30.3 µM | [7] 43.4 µM | [8] 77.8 µM | [10] 24.1 µM | [11] 34.7 µM | [13] 15 µM | [18] 15.8 µM | [14] 57.5 µM | [15] 28.8 µM | [16] 24.4 µM | [19] 25.5 µM | [20] 26.4 µM | [17] 32.3 µM

CCCC(=O)C1=C(O)C(Cc2c(O)c(C)c(O)c(C(=O)CCC)c2O)=C(O)C(C)(C)C1=O
inactive: [1] 16.9 µM | [2] 31.8 µM | [3] 25.2 µM | [4] 11.9 µM | [5] 15.6 µM | [6] 20.4 µM | [7] 21.9 µM | [8] > 50 µM | [9] 17 µM | [10] 11 µM | [11] 19.1 µM | [12] 16.2 µM | [13] 29.4 µM | [14] 30.6 µM | [15] 17 µM | [16] > 50 µM | [19] 23.8 µM | [17] > 50 µM
